According to patent US9796706B2, “Inhibitors of Jun N-terminal kinase” (IMAGO PHARMACEUTICALS, INC., priority 2009, dated 2017):

Key:
Type in all cases: biochemical
Details in all cases: procedures of Example 14 (TR-FRET)
JNK3 = JNK3 (Homo sapiens (Human), UniProt P53779); experiment: JNK3 TR-FRET kinase assay (Example 14)
Procedure: (§1) 14.3. Active JNK 1, 2 and 3 TR-FRET Assay
(§2) (1) Assay buffer #1 with 0.0025% Tween and 1 mM DTT was prepared using JNK buffer stock solution.
(§3) (2) Assay buffer #2 with 0.025% BSA was prepared using the assay buffer #1.
(§4) (3) Test compound solution preparation: 5× compound solution was prepared using assay buffer #1 with 5% DMSO. The compound solution (10 μl/well) was added to a 384-well plate (Corning, Cat No. 3654).
(§5) (4) aJNK1, 2 or 3 preparation: aJNK stock (100 μg/ml) at −80° C. was thawed on ice and an aJNK (1.6 ng/ml) solution was prepared using assay buffer #2. The aJNK solution (20 μl/well) was added to the plate and the plate was shaken. The enzyme was incubated with the compound at RT for 10 min. (5) ATP/substrate solution preparation: ATP and substrate stocks were thawed on ice. 2.5×ATP/substrate (e.g., 25 μM or 2.5 mM ATP/50 nM EPIW-1) was prepared using assay buffer #1. The ATP/substrate (20 μl/well) was added to the plate and the plate was shaken. The plate was incubated at RT for 15 min. Note: In an exemplary assay, the final ATP concentration was about 1 mM. (6) EDTA preparation: 30 mM EDTA was prepared using 0.5M EDTA stock and assay buffer #1. The EDTA (10 μl/well) was added to the plate to quench the enzyme reaction and the plate was shaken well. (7) Detection reagent preparation: Eu-63 and SA-XL stocks were thawed on ice. 4× Eu-63/SA-XL (2 nM Eu-63/9.4 nM SA-XL) was prepared using JNK detection buffer. The Eu-63/SA-XL solution (20 μl/well) was added to the plate and the plate was shaken. The plate was incubated at RT for 1 hr before reading the plate on LJL using ratiometric method named HTRF.
(§6) 14.4. Coupled JNK 1, 2 and 3 TR-FRET Assay
(§7) (1) Assay buffer with 0.0025% Tween, 0.01% BSA, and 1 mM DTT was prepared using JNK buffer stock solution.
(§8) (2) Test compound solution preparation: 5× compound solution, including EDTA background, was prepared using assay buffer with 5% DMSO. The compound solution (10 μl/well) was added to a 384-well plate (Corning, Cat No. 3654).
(§9) (3) uJNK1,2, or 3 activation reaction preparation: uJNK activation solution was prepared using assay buffer (1.6 ng/ml MKK4, 1.6 ng/ml MKK7, 16 ng/ml uJNK, and 20 uM ATP final). The uJNK activation solution (35 μl/well) was added to the plate, the plate was shaken, and the reaction mixture was incubated with compound at 30° C. for 60 min. (4) c-Jun substrate solution preparation: 50 nM EPIW-1, c-Jun peptide, was prepared using assay buffer (15 nM final). The EPIW-1 solution (15 μl/well) was added to the plate, the plate was shaken and incubated at 30° C. for 60 min. (5) EDTA preparation: 30 mM EDTA was prepared using 0.5M EDTA stock and assay buffer. The EDTA (10 μl/well) was added to the plate to quench the enzyme reaction and the plate was shaken well. (6) Detection reagent preparation: Eu-73 and SA-XL stocks were thawed on ice. 4× Eu-73/SA-XL (2 nM Eu-73/9.4 nM SA-XL) were prepared using JNK detection buffer. The Eu-73/SA-XL solution (20 μl/well) was added to the plate. The plate was shaken and incubated at RT for 1 hr before reading the plate on LJL using ratiometric method named HTRF.

JNK1 = JNK1 (Homo sapiens (Human), UniProt P45983); experiment: JNK1 TR-FRET kinase assay (Example 14)
Procedure: as §1, §2, §3, §4, §5, §6, §7, §8, §9

JNK2 = JNK2 (Homo sapiens (Human), UniProt P45984); experiment: JNK2 TR-FRET kinase assay (Example 14)
Procedure: as §1, §2, §3, §4, §5, §6, §7, §8, §9

Chain of JNK2 (P45984 whole entry, species assumed): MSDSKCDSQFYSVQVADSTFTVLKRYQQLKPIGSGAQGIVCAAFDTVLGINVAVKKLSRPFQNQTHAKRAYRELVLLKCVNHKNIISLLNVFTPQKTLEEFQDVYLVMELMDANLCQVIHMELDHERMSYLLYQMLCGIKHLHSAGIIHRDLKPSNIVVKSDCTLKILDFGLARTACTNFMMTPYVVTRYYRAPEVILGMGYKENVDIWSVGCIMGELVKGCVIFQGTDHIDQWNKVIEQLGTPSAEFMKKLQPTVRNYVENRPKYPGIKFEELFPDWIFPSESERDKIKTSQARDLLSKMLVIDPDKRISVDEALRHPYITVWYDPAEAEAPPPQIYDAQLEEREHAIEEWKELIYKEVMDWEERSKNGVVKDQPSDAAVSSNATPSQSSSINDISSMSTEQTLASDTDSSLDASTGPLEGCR
Chain of JNK3 (P53779 whole entry, species assumed): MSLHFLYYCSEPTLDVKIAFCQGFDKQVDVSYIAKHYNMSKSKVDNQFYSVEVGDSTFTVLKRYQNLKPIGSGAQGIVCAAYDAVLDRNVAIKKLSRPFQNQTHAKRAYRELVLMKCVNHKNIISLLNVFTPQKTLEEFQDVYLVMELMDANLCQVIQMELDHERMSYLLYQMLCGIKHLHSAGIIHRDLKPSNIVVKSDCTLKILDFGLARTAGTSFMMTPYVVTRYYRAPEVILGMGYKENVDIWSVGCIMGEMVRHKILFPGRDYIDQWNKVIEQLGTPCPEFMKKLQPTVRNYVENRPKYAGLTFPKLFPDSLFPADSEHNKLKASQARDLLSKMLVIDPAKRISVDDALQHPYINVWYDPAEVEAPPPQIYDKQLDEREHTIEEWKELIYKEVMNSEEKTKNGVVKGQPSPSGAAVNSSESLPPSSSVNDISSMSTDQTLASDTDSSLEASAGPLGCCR
Chain of JNK1 (P45983 other isoform, or with tags, fused parts or gaps isoform P45983-2, species assumed): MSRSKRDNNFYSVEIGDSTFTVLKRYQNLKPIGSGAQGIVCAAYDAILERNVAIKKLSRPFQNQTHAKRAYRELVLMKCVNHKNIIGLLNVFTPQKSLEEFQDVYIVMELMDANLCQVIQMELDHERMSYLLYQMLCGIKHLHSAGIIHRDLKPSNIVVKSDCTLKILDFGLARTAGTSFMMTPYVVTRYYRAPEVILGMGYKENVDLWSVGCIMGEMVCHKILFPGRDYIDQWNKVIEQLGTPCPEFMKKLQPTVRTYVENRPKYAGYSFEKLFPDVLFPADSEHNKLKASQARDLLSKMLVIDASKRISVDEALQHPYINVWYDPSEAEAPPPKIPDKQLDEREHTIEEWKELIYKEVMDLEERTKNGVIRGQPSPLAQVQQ

Work on `Cc1n[nH]c(-c2sccc2NC(=O)Cc2ccc3c(c2)OCCO3)n1` [2-(2,3-dihydrobenzo[b][1,4]dioxin-6-yl)-N-(2-(3-methyl-1H-1,2,4-triazol-5-yl)thiophen-3-yl)acetamide] yielded an IC50 (JNK3) of 0.1 to 10 µM, an IC50 (JNK1) of 0.1 to 10 µM and an IC50 (JNK2) of 0.1 to 10 µM.

`O=C(Cn1c(=O)ccc2cnccc21)Nc1ccsc1-c1cscn1` [2-(2-oxo-1,6-naphthyridin-1(2H)-yl)-N-(2-(thiazol-4-yl)thiophen-3-yl)acetamide] gave an IC50 (JNK3) of 0.1 to 10 µM, an IC50 (JNK1) of less than 0.1 µM and an IC50 (JNK2) of 0.1 to 10 µM.

`O=C(CN1C(=O)CCc2cnccc21)Nc1ccsc1-c1cscn1` [2-(2-oxo-3,4-dihydro-1,6-naphthyridin-1(2H)-yl)-N-(2-(thiazol-4-yl)thiophen-3-yl)acetamide] was tested, and the IC50 (JNK3) was 0.1 to 10 µM, the IC50 (JNK1) was 0.1 to 10 µM and the IC50 (JNK2) was 0.1 to 10 µM.

`O=C(CN1C(=O)CCc2ccccc21)Nc1ccsc1-c1cscn1` [2-(2-oxo-3,4-dihydroquinolin-1(2H)-yl)-N-(2-(thiazol-4-yl)thiophen-3-yl)acetamide] was tested, and the IC50 (JNK3) was 0.1 to 10 µM, the IC50 (JNK1) was 0.1 to 10 µM and the IC50 (JNK2) was 0.1 to 10 µM.

Work on `O=C(Cn1c(=O)ccc2cc(C(F)(F)F)ccc21)Nc1ccsc1-c1cscn1` [2-(2-oxo-6-(trifluoromethyl)quinolin-1(2H)-yl)-N-(2-(thiazol-4-yl)thiophen-3-yl)acetamide] yielded an IC50 (JNK3) of less than 0.1 µM, an IC50 (JNK1) of less than 0.1 µM and an IC50 (JNK2) of 0.1 to 10 µM.

`O=C(Cc1cccc2ccccc12)Nc1ccsc1-c1ccccn1` [2-(2-pyridyl)-3-(1-naphthylacetylamino)thiophene] gave an IC50 (JNK3) of 0.1 to 10 µM.

`Cc1csc(NC(=O)Cc2ccc(OCCn3ccnc3)cc2)c1-c1ncn[nH]1` [2-(4-(2-(1H-imidazol-1-yl)ethoxy)phenyl)-N-(4-methyl-3-(1H-1,2,4-triazol-5-yl)thiophen-2-yl)acetamide] gave an IC50 (JNK3) of 0.1 to 10 µM, an IC50 (JNK1) of 0.1 to 10 µM and an IC50 (JNK2) of 0.1 to 10 µM.

`O=C(Cc1ccc(OCCCN2CCCCC2)cc1)Nc1ccsc1-c1cscn1` [2-(4-(3-(piperidin-1-yl)propoxy)phenyl)-N-(2-(thiazol-4-yl)thiophen-3-yl)acetamide] gave an IC50 (JNK3) of 0.1 to 10 µM, an IC50 (JNK1) of 0.1 to 10 µM and an IC50 (JNK2) of 0.1 to 10 µM.

Molecule `COc1ccc(CC(=O)Nc2ccsc2-c2cn(C)cn2)cc1` [2-(4-methoxyphenyl)-N-(2-(1-methyl-1H-imidazol-4-yl)thiophen-3-yl)acetamide] has an IC50 (JNK3) greater than 10 µM, an IC50 (JNK1) greater than 10 µM and an IC50 (JNK2) greater than 50 µM.

`COc1ccc(CC(=O)Nc2ccsc2-c2c[nH]c(C)n2)cc1` [2-(4-methoxyphenyl)-N-(2-(2-methyl-1H-imidazol-4-yl)thiophen-3-yl)acetamide] showed an IC50 (JNK3) greater than 10 µM, an IC50 (JNK1) greater than 10 µM and an IC50 (JNK2) greater than 50 µM.

`COc1ccc(CC(=O)Nc2ccsc2N2CCOC2=O)cc1` [2-(4-methoxyphenyl)-N-(2-(2-oxooxazolidin-3-yl)thiophen-3-yl)acetamide] showed an IC50 (JNK3) greater than 10 µM, an IC50 (JNK1) greater than 50 µM and an IC50 (JNK2) greater than 50 µM.

`COc1ccc(CC(=O)Nc2ccsc2-c2nc(-c3ccncc3)n[nH]2)cc1` [2-(4-methoxyphenyl)-N-(2-(3-(pyridin-4-yl)-1H-1,2,4-triazol-5-yl)thiophen-3-yl)acetamide] gave an IC50 (JNK3) greater than 10 µM, an IC50 (JNK1) of 0.1 to 10 µM and an IC50 (JNK2) greater than 50 µM.

`COc1ccc(CC(=O)Nc2ccsc2-c2nc(C3CCCO3)n[nH]2)cc1` (centres unmarked) [2-(4-methoxyphenyl)-N-(2-(3-(tetrahydrofuran-2-yl)-1H-1,2,4-triazol-5-yl)thiophen-3-yl)acetamide] showed an IC50 (JNK3) of 0.1 to 10 µM, an IC50 (JNK1) of 0.1 to 10 µM and an IC50 (JNK2) of 0.1 to 10 µM.

`COc1ccc(CC(=O)Nc2ccsc2-c2nc(C(F)(F)F)n[nH]2)cc1` [2-(4-methoxyphenyl)-N-(2-(3-(trifluoromethyl)-1H-1,2,4-triazol-5-yl)thiophen-3-yl)acetamide] showed an IC50 (JNK3) of 0.1 to 10 µM, an IC50 (JNK1) of 0.1 to 10 µM and an IC50 (JNK2) greater than 10 µM.

With `COc1ccc(CC(=O)Nc2ccsc2-c2nc(C)n[nH]2)cc1` [2-(4-methoxyphenyl)-N-(2-(3-methyl-1H-1,2,4-triazol-5-yl)thiophen-3-yl)acetamide] the IC50 (JNK2) was 0.1 to 10 µM.

`COc1ccc(CC(=O)Nc2ccsc2-n2cnc(C)c2)cc1` [2-(4-methoxyphenyl)-N-(2-(4-methyl-1H-imidazol-1-yl)thiophen-3-yl)acetamide] gave an IC50 (JNK3) greater than 50 µM, an IC50 (JNK1) greater than 50 µM and an IC50 (JNK2) greater than 50 µM.

`COc1ccc(CC(=O)Nc2ccsc2-n2cc(C)cn2)cc1` [2-(4-methoxyphenyl)-N-(2-(4-methyl-1H-pyrazol-1-yl)thiophen-3-yl)acetamide] showed an IC50 (JNK3) greater than 10 µM, an IC50 (JNK1) greater than 10 µM and an IC50 (JNK2) greater than 10 µM.

In the case of `COc1ccc(CC(=O)Nc2ccsc2-c2nnc(C)o2)cc1` [2-(4-methoxyphenyl)-N-(2-(5-methyl-1,3,4-oxadiazol-2-yl)thiophen-3-yl)acetamide], the IC50 (JNK3) is reported as 0.1 to 10 µM, the IC50 (JNK1) is reported as 0.1 to 10 µM and the IC50 (JNK2) is reported as greater than 50 µM.

Molecule `COc1ccc(CC(=O)Nc2ccsc2-c2ncco2)cc1` [2-(4-methoxyphenyl)-N-(2-(oxazol-2-yl)thiophen-3-yl)acetamide] has an IC50 (JNK2) greater than 10 µM.

With `COc1ccc(CC(=O)Nc2ccsc2-c2cnccn2)cc1` [2-(4-methoxyphenyl)-N-(2-(pyrazin-2-yl)thiophen-3-yl)acetamide] the IC50 (JNK3) was 0.1 to 10 µM, the IC50 (JNK1) was 0.1 to 10 µM and the IC50 (JNK2) was 0.1 to 10 µM.

Molecule `Cn1ncnc1-c1ncsc1NC(=O)Cc1cccc2cnccc12` [2-(isoquinolin-5-yl)-N-(4-(1-methyl-1H-1,2,4-triazol-5-yl)thiazol-5-yl)acetamide] has an IC50 (JNK2) of 0.1 to 10 µM.

Work on `O=C(Cc1ccc2c(c1)OCCO2)Nc1ccsc1-c1ncn[nH]1` [N-(2-(1H-1,2,4-triazol-5-yl)thiophen-3-yl)-2-(2,3-dihydrobenzo[b][1,4]dioxin-6-yl)acetamide] yielded an IC50 (JNK2) of 0.1 to 10 µM.

`O=C(Cc1cccc2ccccc12)Nc1ccsc1-c1cc[nH]n1` [N-(2-(1H-pyrazol-3-yl)thiophen-3-yl)-2-(naphthalen-1-yl)acetamide] was tested, and the IC50 (JNK2) was greater than 50 µM.

`COc1ccc(CC(=O)Nc2ccsc2-c2nc(N)n[nH]2)cc1` [N-(2-(3-amino-1H-1,2,4-triazol-5-yl)thiophen-3-yl)-2-(4-methoxyphenyl)acetamide] showed an IC50 (JNK2) of 0.1 to 10 µM.

With `Cc1noc(-c2sccc2NC(=O)Cc2cccc3ccccc23)n1` [N-(2-(3-methyl-1,2,4-oxadiazol-5-yl)thiophen-3-yl)-2-(naphthalen-1-yl)acetamide] the IC50 (JNK2) was greater than 50 µM.

For `Cc1n[nH]c(-c2sccc2NC(=O)Cc2ccc(N3CCCC3=O)cc2)n1` [N-(2-(3-methyl-1H-1,2,4-triazol-5-yl)thiophen-3-yl)-2-(4-(2-oxopyrrolidin-1-yl)phenyl)acetamide], the IC50 (JNK2) was 0.1 to 10 µM.

`Cc1cc(-c2sccc2NC(=O)Cc2cccc3ccccc23)n[nH]1` [N-(2-(5-methyl-1H-pyrazol-3-yl)thiophen-3-yl)-2-(naphthalen-1-yl)acetamide] gave an IC50 (JNK2) greater than 50 µM.

In the case of `COc1ccc(CC(=O)Nc2sccc2-c2nn[nH]n2)cc1` [N-(3-(2H-tetrazol-5-yl)thiophen-2-yl)-2-(4-methoxyphenyl)-acetamide], the IC50 (JNK2) is reported as greater than 50 µM.

Molecule `O=C(Cc1cccc2cccnc12)Nc1scc(Br)c1-c1ncn[nH]1` [N-(4-bromo-3-(1H-1,2,4-triazol-5-yl)thiophen-2-yl)-2-(quinolin-8-yl)acetamide] has an IC50 (JNK3) of 0.1 to 10 µM and an IC50 (JNK2) of 0.1 to 10 µM.

`Cc1csc(NC(=O)CN2C(=O)CCc3ccccc32)c1-c1ncn[nH]1` [N-(4-methyl-3-(1H-1,2,4-triazol-5-yl)thiophen-2-yl)-2-(2-oxo-3,4-dihydroquinolin-1(2H)-yl)acetamide] gave an IC50 (JNK3) of less than 0.1 µM and an IC50 (JNK1) of less than 0.1 µM.

With `Cc1csc(NC(=O)Cc2cccc3ncccc23)c1-c1ncn[nH]1` [N-(4-methyl-3-(1H-1,2,4-triazol-5-yl)thiophen-2-yl)-2-(quinolin-5-yl)acetamide] the IC50 (JNK2) was 0.1 to 10 µM.

Work on `Cc1nnc(-c2c(C)csc2NC(=O)Cc2ccc(-c3ccncc3)cc2)[nH]1` [N-(4-methyl-3-(5-methyl-4H-1,2,4-triazol-3-yl)thiophen-2-yl)-2-(4-(pyridin-4-yl)phenyl)acetamide] yielded an IC50 (JNK3) of 0.1 to 10 µM.
